Laboratory results taken from patent US20260078089A1, “BIOACTIVE PHYTOCHEMICALS IN ZIZYPHUS AND GUARANA” (Phytoquest Limited, priority 2018, published 2026).

Columns and labels:
Assay in all cases: Glycosidase assay, p-nitrophenyl substrate
Assay type in all cases: biochemical
Amyloglucosidase = target: T1, Amyloglucosidase (Aspergillus niger, UniProt P69328); details: Aspergillus niger enzyme; screened at 0.14 mg mL−1 (footnote: 0.4 mM)
T1 construct: purchased Sigma Aldrich Chemicals Limited
Description: (§1) Glycosidase assays were conducted as described by Watson et al. (Phytochemistry 1997, 46, 255) using p-nitrophenyl-substrates (except sialidase which used methylumbeliferyl-N-acetyineuraminic acid as substrate). Assays were carried out in microtitre plates. Enzymes were assayed in 0.1 M citric acid/0.2 M di-sodium hydrogen phosphate (McIlvaine) buffers at the optimum pH for the enzyme. All assays were carried out at 20° C. All enzymes and substrates were purchased from Sigma Aldrich Chemicals Limited. The incubation mixture consisted of 10 μl of enzyme solution, 10 μl of the iminosugars solution and 50 μl of the appropriate 5 mM p-nitrophenyl substrate made up in McIlvaine buffer at the optimum pH for the enzyme. The reactions were stopped with 0.4 M glycine (pH 10.4) during the exponential phase of the reaction. Absorbances were read at 405 nm. Water was substituted for the alkaloids in the blanks. Reactions were carried out in triplicate.
(§2) Enzyme inhibitor solutions—Compounds were dissolved in distilled water at a concentration of 1 mg mL^−1 and then screened at a concentration of 0.14 mg mL^−1 after dilution of the 1 mg mL^−1 in the assay volumes of substrates.

[1] = system: N-acetyl-β-D-glucosaminidase; details: screened at 0.14 mg mL−1 (footnote: 0.4 mM)
Description: as §1, §2

[2] = target: T2, N-acetyl-β-D-hexosaminidase (Aspergillus oryzae, UniProt Q8J2T0); details: Aspergillus oryzae enzyme; screened at 0.14 mg mL−1 (footnote: 0.4 mM)
T2 construct: purchased Sigma Aldrich Chemicals Limited
Description: as §1, §2

Naringinase = details: Penicillium decumbens enzyme; screened at 0.14 mg mL−1 (footnote: 0.4 mM)
Description: as §1, §2

α-D-galactosidase = target: T3, α-D-galactosidase (Coffea arabica, UniProt Q42656); details: Green coffee bean enzyme; screened at 0.14 mg mL−1 (footnote: 0.4 mM)
T3 construct: purchased Sigma Aldrich Chemicals Limited
Description: as §1, §2

α-D-glucosidase [3] = target: T4, α-D-glucosidase (Oryza sativa subsp. japonica, UniProt Q653V7); details: Rice enzyme; screened at 0.14 mg mL−1 (footnote: 0.4 mM)
T4 construct: purchased Sigma Aldrich Chemicals Limited
Description: as §1, §2

α-D-glucosidase [4] = target: T5, α-D-glucosidase (Saccharomyces cerevisiae, UniProt P53341); details: Saccharomyces cerevisiae enzyme; screened at 0.14 mg mL−1 (footnote: 0.4 mM); 20° C
T5 construct: purchased Sigma Aldrich Chemicals Limited
Description: as §1, §2

α-D-glucosidase [5] = details: Bacillus sterothermphilus enzyme; screened at 0.14 mg mL−1 (footnote: 0.4 mM)
Description: as §1, §2

α-D-mannosidase = target: T6, α-D-mannosidase (Canavalia ensiformis, UniProt C0HJB3); details: Jack bean enzyme; screened at 0.14 mg mL−1 (footnote: 0.4 mM)
T6 construct: purchased Sigma Aldrich Chemicals Limited
T6 sequence (C0HJB3 1-981): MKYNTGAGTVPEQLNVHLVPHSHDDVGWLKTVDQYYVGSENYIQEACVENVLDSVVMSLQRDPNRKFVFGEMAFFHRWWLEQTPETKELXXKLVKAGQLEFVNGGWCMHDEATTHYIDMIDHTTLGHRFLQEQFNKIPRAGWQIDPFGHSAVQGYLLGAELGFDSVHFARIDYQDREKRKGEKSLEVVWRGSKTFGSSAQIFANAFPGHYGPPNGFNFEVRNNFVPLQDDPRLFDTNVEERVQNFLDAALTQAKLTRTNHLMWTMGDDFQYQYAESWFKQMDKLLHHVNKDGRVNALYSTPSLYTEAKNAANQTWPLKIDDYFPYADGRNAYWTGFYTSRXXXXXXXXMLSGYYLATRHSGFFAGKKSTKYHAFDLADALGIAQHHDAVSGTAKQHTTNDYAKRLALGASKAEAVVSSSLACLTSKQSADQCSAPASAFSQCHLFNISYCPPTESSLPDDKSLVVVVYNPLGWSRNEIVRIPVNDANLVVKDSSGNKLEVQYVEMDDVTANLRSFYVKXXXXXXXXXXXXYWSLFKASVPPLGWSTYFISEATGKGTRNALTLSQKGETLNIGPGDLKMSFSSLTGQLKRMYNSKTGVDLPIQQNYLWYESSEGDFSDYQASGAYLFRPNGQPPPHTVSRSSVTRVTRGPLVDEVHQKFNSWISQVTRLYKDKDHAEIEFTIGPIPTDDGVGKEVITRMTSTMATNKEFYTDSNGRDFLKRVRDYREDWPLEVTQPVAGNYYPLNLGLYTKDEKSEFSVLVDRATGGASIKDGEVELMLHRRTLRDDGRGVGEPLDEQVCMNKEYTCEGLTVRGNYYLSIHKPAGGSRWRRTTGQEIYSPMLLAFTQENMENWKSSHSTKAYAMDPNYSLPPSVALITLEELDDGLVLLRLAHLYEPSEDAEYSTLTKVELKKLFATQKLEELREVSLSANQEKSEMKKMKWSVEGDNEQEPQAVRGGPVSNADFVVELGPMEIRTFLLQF
Description: as §1, §2

α-L-fucosidase = target: T7, α-L-fucosidase (Bos taurus, UniProt Q2KIM0); details: Bovine kidney enzyme; screened at 0.14 mg mL−1 (footnote: 0.4 mM)
T7 construct: purchased Sigma Aldrich Chemicals Limited
T7 sequence (Q2KIM0 23-468): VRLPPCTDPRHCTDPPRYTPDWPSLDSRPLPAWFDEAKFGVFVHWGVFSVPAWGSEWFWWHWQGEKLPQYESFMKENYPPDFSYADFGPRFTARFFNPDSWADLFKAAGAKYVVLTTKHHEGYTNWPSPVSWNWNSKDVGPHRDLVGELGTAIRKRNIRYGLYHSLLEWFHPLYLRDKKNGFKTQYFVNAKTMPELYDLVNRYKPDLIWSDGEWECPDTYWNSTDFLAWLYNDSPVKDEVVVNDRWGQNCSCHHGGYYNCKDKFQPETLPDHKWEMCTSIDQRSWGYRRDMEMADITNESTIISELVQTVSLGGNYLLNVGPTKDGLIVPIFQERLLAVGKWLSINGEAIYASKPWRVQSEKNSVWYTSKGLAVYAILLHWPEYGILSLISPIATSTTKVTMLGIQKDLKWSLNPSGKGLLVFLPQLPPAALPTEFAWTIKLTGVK
Description: as §1, §2

β-D-galactosidase = details: Bovine liver enzyme; screened at 0.14 mg mL−1 (footnote: 0.4 mM)
Description: as §1, §2

β-D-glucosidase = details: Almond enzyme; screened at 0.14 mg mL−1 (footnote: 0.4 mM)
Description: as §1, §2

β-D-mannosidase = details: Cellullomonas fimi enzyme; screened at 0.14 mg mL−1 (footnote: 0.4 mM)
Description: as §1, §2

T2 sequence (Q8J2T0 97-600): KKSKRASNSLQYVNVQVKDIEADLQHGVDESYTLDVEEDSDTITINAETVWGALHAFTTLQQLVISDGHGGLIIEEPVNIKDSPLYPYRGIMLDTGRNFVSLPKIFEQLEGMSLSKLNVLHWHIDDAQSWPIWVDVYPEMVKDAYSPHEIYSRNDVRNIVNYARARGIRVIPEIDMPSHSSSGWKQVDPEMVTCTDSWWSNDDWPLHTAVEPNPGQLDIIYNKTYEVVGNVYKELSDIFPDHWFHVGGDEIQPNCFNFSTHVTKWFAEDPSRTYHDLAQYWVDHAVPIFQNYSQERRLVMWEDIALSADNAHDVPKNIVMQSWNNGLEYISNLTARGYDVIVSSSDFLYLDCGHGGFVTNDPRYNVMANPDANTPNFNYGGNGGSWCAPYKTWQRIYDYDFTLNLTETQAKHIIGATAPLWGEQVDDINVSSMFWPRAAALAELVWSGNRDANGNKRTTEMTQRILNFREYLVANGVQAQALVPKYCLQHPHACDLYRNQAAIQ
T5 sequence (P53341 whole entry): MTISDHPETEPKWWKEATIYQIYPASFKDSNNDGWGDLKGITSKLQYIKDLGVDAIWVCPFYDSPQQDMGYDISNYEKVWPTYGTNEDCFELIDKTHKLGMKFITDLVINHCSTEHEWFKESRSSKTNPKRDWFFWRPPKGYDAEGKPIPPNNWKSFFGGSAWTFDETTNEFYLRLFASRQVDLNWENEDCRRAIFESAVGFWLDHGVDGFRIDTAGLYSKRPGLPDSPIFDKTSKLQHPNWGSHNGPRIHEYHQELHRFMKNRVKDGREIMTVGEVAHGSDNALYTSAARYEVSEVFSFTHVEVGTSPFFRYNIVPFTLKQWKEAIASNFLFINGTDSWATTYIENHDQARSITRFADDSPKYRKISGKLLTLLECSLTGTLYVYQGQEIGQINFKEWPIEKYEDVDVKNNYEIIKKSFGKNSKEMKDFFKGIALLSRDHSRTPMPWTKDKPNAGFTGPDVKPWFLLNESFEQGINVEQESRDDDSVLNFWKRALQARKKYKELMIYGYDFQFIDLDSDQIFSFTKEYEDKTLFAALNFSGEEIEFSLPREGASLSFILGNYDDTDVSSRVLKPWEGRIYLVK
T4 sequence (Q653V7 34-885): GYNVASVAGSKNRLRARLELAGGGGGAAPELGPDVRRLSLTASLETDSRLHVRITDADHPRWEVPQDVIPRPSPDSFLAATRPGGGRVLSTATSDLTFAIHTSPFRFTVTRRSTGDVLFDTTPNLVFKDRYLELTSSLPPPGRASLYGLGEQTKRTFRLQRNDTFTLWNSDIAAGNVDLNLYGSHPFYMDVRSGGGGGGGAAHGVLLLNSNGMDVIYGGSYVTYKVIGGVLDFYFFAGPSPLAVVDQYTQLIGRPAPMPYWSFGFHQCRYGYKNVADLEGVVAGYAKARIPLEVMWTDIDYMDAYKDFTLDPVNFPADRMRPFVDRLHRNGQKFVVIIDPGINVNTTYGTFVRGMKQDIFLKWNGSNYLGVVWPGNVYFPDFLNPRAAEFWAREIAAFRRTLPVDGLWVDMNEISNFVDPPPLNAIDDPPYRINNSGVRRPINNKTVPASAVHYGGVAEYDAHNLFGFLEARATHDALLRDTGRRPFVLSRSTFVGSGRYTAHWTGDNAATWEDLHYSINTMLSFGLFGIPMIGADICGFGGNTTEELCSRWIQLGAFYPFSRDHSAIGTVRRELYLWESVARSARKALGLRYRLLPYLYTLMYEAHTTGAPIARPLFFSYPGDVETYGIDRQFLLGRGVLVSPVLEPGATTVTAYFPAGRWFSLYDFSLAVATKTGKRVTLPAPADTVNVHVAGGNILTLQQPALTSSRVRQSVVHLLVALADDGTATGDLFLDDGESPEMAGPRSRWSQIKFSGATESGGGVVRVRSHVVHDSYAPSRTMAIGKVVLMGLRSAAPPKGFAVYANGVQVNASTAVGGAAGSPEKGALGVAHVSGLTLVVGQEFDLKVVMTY
T1 sequence (P69328 25-640): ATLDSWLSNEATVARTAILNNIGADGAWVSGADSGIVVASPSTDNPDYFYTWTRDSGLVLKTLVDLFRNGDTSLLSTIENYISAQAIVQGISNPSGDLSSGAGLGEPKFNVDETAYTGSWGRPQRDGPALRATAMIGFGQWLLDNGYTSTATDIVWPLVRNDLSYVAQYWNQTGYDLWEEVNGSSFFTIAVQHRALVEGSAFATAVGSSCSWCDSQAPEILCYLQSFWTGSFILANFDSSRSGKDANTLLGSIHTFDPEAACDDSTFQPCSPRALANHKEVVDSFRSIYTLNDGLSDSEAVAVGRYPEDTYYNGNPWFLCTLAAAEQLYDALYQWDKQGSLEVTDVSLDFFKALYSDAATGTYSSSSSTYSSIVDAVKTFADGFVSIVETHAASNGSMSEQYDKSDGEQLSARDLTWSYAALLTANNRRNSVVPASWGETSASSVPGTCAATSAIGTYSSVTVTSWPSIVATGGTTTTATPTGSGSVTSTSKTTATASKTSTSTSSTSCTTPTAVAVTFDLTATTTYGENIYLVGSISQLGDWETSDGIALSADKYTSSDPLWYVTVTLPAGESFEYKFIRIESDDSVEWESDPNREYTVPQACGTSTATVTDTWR
T3 sequence (Q42656 16-378): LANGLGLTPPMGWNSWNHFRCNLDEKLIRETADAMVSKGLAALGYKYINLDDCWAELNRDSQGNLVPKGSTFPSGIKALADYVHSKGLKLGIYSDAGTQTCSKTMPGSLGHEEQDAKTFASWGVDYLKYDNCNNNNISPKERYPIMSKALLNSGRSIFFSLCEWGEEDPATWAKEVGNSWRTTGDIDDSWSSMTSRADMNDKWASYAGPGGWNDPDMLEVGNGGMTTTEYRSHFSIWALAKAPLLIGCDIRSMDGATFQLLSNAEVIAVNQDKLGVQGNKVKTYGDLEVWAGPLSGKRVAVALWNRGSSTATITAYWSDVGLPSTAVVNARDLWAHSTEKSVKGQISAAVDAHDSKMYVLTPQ

## OC[C@H]1N[C@H](CO)[C@@H](O)[C@@H]1O [DMDP]
Amyloglucosidase
  % inhibition: 46.84%
[1]; Bovine kidney enzyme
  % inhibition: −7.60%
[1]; Jack bean enzyme
  % inhibition: −6.65%
[2]
  % inhibition: 5.62%
Naringinase
  % inhibition: 2.97%
α-D-galactosidase
  % inhibition: 6.95%
α-D-glucosidase [3]
  % inhibition: 94.59%
α-D-glucosidase [4]
  % inhibition: 97.37%
α-D-glucosidase [5]
  % inhibition: 92.98%
α-D-mannosidase
  % inhibition: 2.70%
α-L-fucosidase
  % inhibition: 4.84%
β-D-galactosidase
  % inhibition: 98.75%
β-D-glucosidase
  % inhibition: 96.61%
β-D-mannosidase
  % inhibition: 93.34%
